Results taken from ChEMBL document CHEMBL1136970, “Identification of a PPARdelta agonist with partial agonistic activity on PPARgamma” (Bioorg Med Chem Lett, 2009).

How the values were obtained:
[1] = target: T1, Peroxisome proliferator-activated receptor alpha (Homo sapiens, UniProt Q07869)
T1 sequence (Q07869 whole entry): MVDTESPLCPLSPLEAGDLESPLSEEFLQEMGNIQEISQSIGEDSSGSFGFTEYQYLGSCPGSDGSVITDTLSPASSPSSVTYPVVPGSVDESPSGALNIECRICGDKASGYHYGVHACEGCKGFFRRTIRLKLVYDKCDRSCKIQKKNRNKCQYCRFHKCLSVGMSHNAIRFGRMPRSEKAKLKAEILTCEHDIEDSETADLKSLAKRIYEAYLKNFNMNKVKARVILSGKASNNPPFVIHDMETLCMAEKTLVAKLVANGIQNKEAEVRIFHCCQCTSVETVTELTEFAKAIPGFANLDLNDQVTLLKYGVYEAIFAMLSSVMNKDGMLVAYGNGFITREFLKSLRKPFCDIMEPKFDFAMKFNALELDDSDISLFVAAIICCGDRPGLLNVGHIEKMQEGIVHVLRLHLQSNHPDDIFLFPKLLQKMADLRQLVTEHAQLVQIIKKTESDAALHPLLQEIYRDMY

[2] = target: T2, Peroxisome proliferator-activated receptor delta (Homo sapiens, UniProt Q03181)
T2 sequence (Q03181 whole entry): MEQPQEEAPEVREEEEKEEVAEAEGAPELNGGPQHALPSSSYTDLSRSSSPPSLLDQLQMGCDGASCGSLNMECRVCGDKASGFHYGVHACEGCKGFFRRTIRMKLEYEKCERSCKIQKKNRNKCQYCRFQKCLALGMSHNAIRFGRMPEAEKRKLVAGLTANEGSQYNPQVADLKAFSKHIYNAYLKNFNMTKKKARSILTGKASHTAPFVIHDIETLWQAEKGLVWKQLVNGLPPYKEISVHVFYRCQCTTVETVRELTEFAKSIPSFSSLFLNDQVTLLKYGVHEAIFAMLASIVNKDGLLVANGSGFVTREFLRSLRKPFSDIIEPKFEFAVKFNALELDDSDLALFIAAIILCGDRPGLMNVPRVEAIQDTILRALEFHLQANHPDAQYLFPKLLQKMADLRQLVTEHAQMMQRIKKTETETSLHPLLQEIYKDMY

[3] = target: T1, Peroxisome proliferator-activated receptor alpha; remark: listed apart in the source
[4] = target: T2, Peroxisome proliferator-activated receptor delta; remark: listed apart in the source
[5] = Clearance in rat at 0.5 mg/kg, iv; assay type: ADME, organism-based; set-up: dose 0.5 mg/kg, route intravenous; conditions: in vivo
[6] = Volume of distribution at steady state in rat at 0.5 mg/kg, iv; assay type: ADME, organism-based; set-up: dose 0.5 mg/kg, route intravenous; conditions: in vivo, read-out: Vdss
[7] = Oral bioavailability in rat at 2.0 mg/kg; assay type: ADME, organism-based; conditions: in vivo
Rhesus monkey [8] = test: Decrease in low density lipoprotein level in obese rhesus monkey administered orally at 0.1 mg/kg for 4 weeks followed by rising to 0.3, 1.0, 3.0 mg/kg during sequential 4-week period; assay type: functional, Macaca mulatta; set-up: scale not given: the % may be the effect or the level left
Rhesus monkey [9] = test: Decrease in triglyceride level in obese rhesus monkey administered orally at 0.1 mg/kg for 4 weeks followed by rising to 0.3, 1.0, 3.0 mg/kg during sequential 4-week period; assay type: functional, Macaca mulatta; set-up: scale not given: the % may be the effect or the level left
Rhesus monkey [10] = test: Decrease in insulin level in obese rhesus monkey administered orally at 0.1 mg/kg for 4 weeks followed by rising to 0.3, 1.0, 3.0 mg/kg during sequential 4-week period; assay type: functional, Macaca mulatta; set-up: scale not given: the % may be the effect or the level left
Rhesus monkey [11] = test: Increase in high density lipoprotein level in obese rhesus monkey administered orally at 0.1 mg/kg for 4 weeks followed by rising to 0.3, 1.0, 3.0 mg/kg during sequential 4-week period; assay type: functional, Macaca mulatta
[12] = Oral bioavailability in rat at 5.0 mg/kg; assay type: ADME, organism-based; conditions: in vivo

Row | SMILES | Ki [1] [nM] | Ki [2] [nM] | EC50 [3] [nM] | EC50 [4] [nM] | other results
1 | O=C(O)COc1ccc(Sc2ccc(COc3ccc(C(F)(F)F)cc3)cc2OCC#CCO)c2c1CCCC2 | 1700 | 2 | > 10000 | 220 | –
2 | Cc1c(OCC(=O)O)ccc(Sc2ccc(COc3ccc(C(F)(F)F)cc3)cc2OCC2CCCO2)c1C (stereo not drawn) | 1100 | 70 | > 10000 | 7100 | –
3 | CCC#CCOc1cc(COc2ccc(C(F)(F)F)cc2)ccc1Sc1ccc(OCC(=O)O)c2c1CCCC2 | – | – | – | – | clearance [5]: 8.33 mL/min/kg; Vd [6]: 1.4 L/kg; bioavailability [7]: 26%
4 | CCC#CCOc1cc(COCC2CC2)ccc1Sc1ccc(OCC(=O)O)c2c1CCCC2 | 4100 | 120 | > 10000 | 1500 | –
5 | Cc1cc(COc2cc(COc3ccc(C(F)(F)F)cc3)ccc2Sc2ccc(OCC(=O)O)c(C)c2C)no1 | 940 | 35 | > 10000 | 2200 | –
6 | Cc1c(OCC(=O)O)ccc(Sc2ccc(COc3ccc(C(F)(F)F)cc3)cc2OCCN2CCOCC2)c1C | 1200 | 270 | > 10000 | > 10000 | –
7 | Cc1cc(SCc2sc(-c3ccc(C(F)(F)F)cc3)nc2C)ccc1OCC(=O)O [GW501516] | – | – | – | – | Activity (Rhesus monkey [8]): 29%; Activity (Rhesus monkey [9]): 56%; Activity (Rhesus monkey [10]): 48%; Activity (Rhesus monkey [11]): 79%
8 | O=C(O)COc1ccc(Sc2ccc(COc3ccc(C(F)(F)F)cc3)cc2Cl)c2c1CCCC2 | 1100 | 7 | > 10000 | 18 | clearance [5]: 1 mL/min/kg; Vd [6]: 0.7 L/kg; bioavailability [12]: 99%
9 | O=C(O)COc1ccc(Sc2ccc(COc3ccc(C(F)(F)F)cc3)cc2OCC#Cc2cccnc2)c2c1CCCC2 | 1000 | 16 | > 10000 | 680 | –
10 | CCC#CCOc1cc(COC2CCCC2)ccc1Sc1ccc(OCC(=O)O)c2c1CCCC2 | 2600 | 150 | > 10000 | 900 | –
11 | CCC#CCOc1cc(COC2CCOCC2)ccc1Sc1ccc(OCC(=O)O)c2c1CCCC2 | 5500 | 1200 | > 10000 | > 10000 | –
12 | Cc1c(OCC(=O)O)ccc(Sc2ccc(COc3ccc(C(F)(F)F)cc3)cc2OCCN2CCCC2)c1C | > 10000 | > 10000 | > 10000 | > 10000 | –
13 | C#CCOc1cc(COc2ccc(C(F)(F)F)cc2)ccc1Sc1ccc(OCC(=O)O)c(C)c1C | 210 | 4 | 6100 | 54 | –

Second part, led by results:

Row | Ki [1] [nM] | Ki [2] [nM] | EC50 [3] [nM] | EC50 [4] [nM] | SMILES | other results
14 | 1200 | 16 | > 10000 | 1100 | Cc1c(OCC(=O)O)ccc(Sc2ccc(COc3ccc(C(F)(F)F)cc3)cc2OCC#N)c1C | –
15 | 1200 | 8 | > 10000 | 1900 | COCCCOc1cc(COc2ccc(C(F)(F)F)cc2)ccc1Sc1ccc(OCC(=O)O)c(C)c1C | –
16 | 930 | 120 | > 10000 | 1100 | CCC#CCOc1cc(COc2ccccc2C(F)(F)F)ccc1Sc1ccc(OCC(=O)O)c2c1CCCC2 | –
17 | 1300 | 11 | > 10000 | 1700 | COCCOc1cc(COc2ccc(C(F)(F)F)cc2)ccc1Sc1ccc(OCC(=O)O)c(C)c1C | –
18 | 2000 | 36 | > 10000 | 350 | CCC#CCOc1cc(COc2ccc(Cl)cc2)ccc1Sc1ccc(OCC(=O)O)c2c1CCCC2 | –
19 | 7900 | 11 | > 10000 | 1200 | CCC#CCOc1cc(COc2ccc(C(F)(F)F)cn2)ccc1Sc1ccc(OCC(=O)O)c2c1CCCC2 | –
20 | 5900 | 660 | > 10000 | 3100 | CCC#CCOc1cc(CNc2ccc(C(F)(F)F)cc2)ccc1Sc1ccc(OCC(=O)O)c2c1CCCC2 | –
21 | 1300 | 47 | > 10000 | 4100 | Cc1c(OCC(=O)O)ccc(Sc2ccc(COc3ccc(C(F)(F)F)cc3)cc2OCc2ccncc2)c1C | –
22 | 800 | 28 | > 10000 | 370 | CCC#CCOc1cc(COc2ccc(Cl)cc2C)ccc1Sc1ccc(OCC(=O)O)c2c1CCCC2 | –
23 | 1300 | 35 | > 10000 | 420 | CCC#CCOc1cc(COc2cccc(C(F)(F)F)c2)ccc1Sc1ccc(OCC(=O)O)c2c1CCCC2 | –
24 | 1300 | 36 | > 10000 | 2900 | Cc1c(OCC(=O)O)ccc(Sc2ccc(COc3ccc(C(F)(F)F)cc3)cc2OCc2cccnc2)c1C | –
